Test results as given in US4264577A, “Contraceptive methods and compositions” (Eli Lilly and Company, priority 1980, dated 1981).

Key:
[1] = target: T1, Acrosin (purified from boar sperm) (Sus scrofa, UniProt P08001); experiment: Acrosin inhibition in vitro (BAPNA substrate); assay type: biochemical; design: Inhibition (units/mg): dose or concentration left out as unconfirmed; details: for Inhibition (units/mg.): sodium salts; for Inhibition (units/mg): other salts
T1 construct: purified from boar sperm; from tissue; host or cells: boar sperm
Experimental: A control using the buffer solution without the test compound added is also run. A 200 μl-sample of the incubation mixture is then withdrawn and is added to a cuvette containing BAPNA (1 ml.) and triethanolamine buffer (2 ml.). The mixture is stirred and placed in a Gilford recording spectrophotometer. The increase in optical density at 383 nm is measured. One unit of acrosin activity is defined as the amount of acrosin which will cause an increase in optical density at 383 nm. of 0.001/minute. One unit of inhibitory activity is defined as the amount of inhibitor which will cause a reduction in the increase in optical density at 383 nm. of 0.001/minute.

[2] = target: T2, Testicular bovine hyaluronidase (Bos taurus, UniProt Q2YDK3); experiment: Hyaluronidase inhibition in vitro (chondroitin sulfate agar plate); assay type: biochemical; details: for inhibition at 1000 µg/mL: Conc. of Test Solution 1 mg/ml; for % Inhibition: Conc. of Test Sol. 10 mg/ml
T2 construct: purchased Sigma Chemical Company; host or cells: bovine testis
T2 sequence (Q2YDK3 36-553): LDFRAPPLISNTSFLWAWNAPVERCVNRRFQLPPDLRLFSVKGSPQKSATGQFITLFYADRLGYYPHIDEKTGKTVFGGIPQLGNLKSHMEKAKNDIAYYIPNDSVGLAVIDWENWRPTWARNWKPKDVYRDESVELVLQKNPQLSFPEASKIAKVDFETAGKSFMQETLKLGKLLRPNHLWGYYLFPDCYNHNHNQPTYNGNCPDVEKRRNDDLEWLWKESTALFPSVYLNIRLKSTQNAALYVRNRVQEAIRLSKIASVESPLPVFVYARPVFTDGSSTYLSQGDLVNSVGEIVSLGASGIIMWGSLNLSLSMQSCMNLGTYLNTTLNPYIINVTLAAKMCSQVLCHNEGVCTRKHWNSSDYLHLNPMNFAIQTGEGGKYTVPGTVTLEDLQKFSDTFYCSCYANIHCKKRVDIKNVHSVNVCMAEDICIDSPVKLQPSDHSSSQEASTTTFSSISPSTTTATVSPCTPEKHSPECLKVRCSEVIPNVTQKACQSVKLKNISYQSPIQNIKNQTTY
Experimental: The inhibition of hyaluronidase is assessed using chondroitin sulfate as the enzyme substrate according to the following procedure:
Agar plates containing chondroitin sulfate (0.1 percent) are prepared by the following method: water solutions of 1 percent agarose, 2 M sodium chloride (0.1 vol.), 1 M sodium acetate (pH 5.0, 0.1 vol), and sodium azide (0.5 mg./ml., 0.1 vol.) are mixed and the mixture is brought to the boiling temperature. […] After cooling to about 45° C., the resulting mixture (20 ml.) is poured onto a petri dish. The plates are allowed to cool to room temperature. A well 2 mm. in diameter is then cut in the agar surface. […] A control using only the buffer solution without added test compound is also run. The plates are then incubated overnight (about 16 hours) at 37° C. The zones of hydrolysis of chondroitin sulfate by hyaluronidase are visualized by flooding the plate with 10 percent cetyl trimethyl ammonium bromide. The area of the zone is logarithmically proportional to the concentration of hyaluronidase. Inhibitor activity is determined by comparing the area of hydrolysis from the test compound to the area of hydrolysis from the control. The results are expressed as percent inhibition calculated as follows: [formula]

[3] = sodium salts, Conc. of Test Solution 10 mg/ml
[4] = Conc. of Test Solution 10 Mg/ml

T1 sequence (P08001 40-338 limits assumed): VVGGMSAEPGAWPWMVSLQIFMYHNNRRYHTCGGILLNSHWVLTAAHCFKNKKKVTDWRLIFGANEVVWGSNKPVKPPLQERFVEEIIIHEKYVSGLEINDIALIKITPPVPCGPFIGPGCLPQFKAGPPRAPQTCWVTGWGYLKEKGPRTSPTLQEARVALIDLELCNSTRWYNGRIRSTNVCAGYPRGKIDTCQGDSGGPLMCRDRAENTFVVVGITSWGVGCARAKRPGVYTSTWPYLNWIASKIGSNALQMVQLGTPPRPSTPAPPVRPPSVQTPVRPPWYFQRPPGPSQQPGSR
T1 sequence (P08001 17-39 limits assumed): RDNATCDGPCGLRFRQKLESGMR

| Compound | Inhibition (units/mg.) ([1]; Conc. of Test Solution 1 Mg/ml) | inhibition at 1000 µg/mL ([2]; sodium salts) [%] | also measured |
| --- | --- | --- | --- |
| CCCCCCCCCCC(CCCCCCCC)COS(=O)(=O)O (stereo not drawn) [2-octyldodecyl] | 132,000 units/mg. | 0 | – |
| CCCCCCCCCCCCC(C)OS(=O)(=O)O (stereo not drawn) [2-tetradecyl] | 87,000 units/mg. | 100 | – |
| CC(C)CCCC(C)CCCC(C)CCOS(=O)(=O)O (stereo not drawn) [3,7,11-trimethyldodecyl] | 29,000 units/mg. | 39 | – |
| CCCCCCCCCCC(CCC)OS(=O)(=O)O (stereo not drawn) [4-tetradecyl] | 102,000 units/mg. | 0 | – |
| CCCCCCCCC(CCCCC)OS(=O)(=O)O (stereo not drawn) [6-tetradecyl] | 90,000 units/mg. | 12 | – |
| CCCCCCCCCC(CCCCCC)OS(=O)(=O)O (stereo not drawn) [7-hexadecyl] | 123,000 units/mg. | 0 | – |
| CCCCCCCC(CCCCCC)OS(=O)(=O)O (stereo not drawn) [7-tetradecyl] | 112,000 units/mg. | 0 | – |
| CCCCCCCCC(CCCCCCC)OS(=O)(=O)O (stereo not drawn) [8-hexadecyl] | 28,000 units/mg. | 0 | – |
| CCCCCCCCCC(CCCCCCCC)OS(=O)(=O)O (stereo not drawn) [9-octadecyl] | 148,000 units/mg. | 7 | – |
| CC(C)CCCCCCCCCCCOS(=O)(=O)O [12-methyltridecyl] | 172,000 units/mg. | 7 | – |
| CCCCCCCCCCCCOS(=O)(=O)O [CH3 (CH2)11 diethanolammonium] | – | – | Inhibition (units/mg) [1]: 90,000 units/mg; inhibition at 10000 µg/mL ([2]; 16 h, other salts, Conc. of Test Sol. 10 mg/ul): 100% |
| CCCCCCCCCCCCCCOS(=O)(=O)O [CH3 (CH2)13 Ca] | – | – | Inhibition (units/mg) [1]: 48,000 units/mg; % Inhibition ([2]; other salts): 38% |
| CCCCCCCCCCCCCCOS(=O)(=O)O [CH3 (CH2)13 K] | – | – | Inhibition (units/mg) [1]: 62,000 units/mg; % Inhibition ([2]; other salts): 27% |
| CCCCCCCCCCCCCCOS(=O)(=O)O [CH3 (CH2)13 Li] | – | – | Inhibition (units/mg) [1]: 58,000 units/mg; % Inhibition ([2]; other salts): 27% |
| CCCCCCCCCCCCCCOS(=O)(=O)O [CH3 (CH2)13 Mg] | – | – | Inhibition (units/mg) [1]: 59,000 units/mg; % Inhibition ([2]; other salts): 14% |
| CCCCCCCCCCCCCCOS(=O)(=O)O [CH3 (CH2)13 NH4] | – | – | Inhibition (units/mg) [1]: 47,000 units/mg; % Inhibition ([2]; other salts): 14% |

| Compound | Inhibition (units/mg.) ([1]; Conc. of Test Solution 1 Mg/ml) | inhibition at 1000 µg/mL ([2]; sodium salts) [%] | also measured |
| --- | --- | --- | --- |
| CCCCC/C=C\C/C=C\CCCCCCCCOS(=O)(=O)O [linoleyl] | 210,000 units/mg. | 0 | – |
| CCCC/C=C/CCCCCCCCOS(=O)(=O)O [myristeladyl] | 216,000 units/mg. | 13 | – |
| CCCC/C=C\CCCCCCCCOS(=O)(=O)O [myristoleyl] | 160,000 units/mg. | 13 | – |
| CCCCCCCCCCCCCCCCCCCCCCOS(=O)(=O)O [n-docosyl] | 300,000 units/mg. | 0 | – |
| CCCCCCCCCCCCOS(=O)(=O)[O-].[Na+] [n-dodecyl, Sodium lauryl sulfate] | – | – | inhibition at 10000 µg/mL [2, 3]: 71% |
| CCCCCCCCCCCCCCCCCCCCOS(=O)(=O)O [n-eicosyl] | – | – | Inhibition (units/mg.) [1, 4]: 31,800 units/mg.; inhibition at 10000 µg/mL [2, 3]: 0% |
| CCCCCCCCCCCOS(=O)(=O)O [n-hendecyl] | – | – | Inhibition (units/mg.) [1, 4]: 0 units/mg.; inhibition at 10000 µg/mL [2, 3]: 100% |
| CCCCCCCCCCCCCCCCCCCCCCCCCCCOS(=O)(=O)O [n-heptacosyl] | 100,000 units/mg. | 0 | – |
| CCCCCCCCCCCCCCCCCOS(=O)(=O)O [n-heptadecyl] | – | – | Inhibition (units/mg.) [1, 4]: 18,300 units/mg.; inhibition at 10000 µg/mL [2, 3]: 23% |
| CCCCCCCCCCCCCCCCOS(=O)(=O)O [n-hexadecyl] | – | – | Inhibition (units/mg.) [1, 4]: 15,200 units/mg.; inhibition at 10000 µg/mL [2, 3]: 75% |
| CCCCCCCCCCCCCCCCCCOS(=O)(=O)O [n-octadecyl] | – | – | Inhibition (units/mg.) [1, 4]: 26,000 units/mg.; inhibition at 10000 µg/mL [2, 3]: 30% |
| CCCCCCCCCCCCCCCOS(=O)(=O)O [n-pentadecyl] | – | – | Inhibition (units/mg.) [1, 4]: 14,300 units/mg.; inhibition at 10000 µg/mL [2, 3]: 60% |
| CCCCCCCCCCCCCCCCCCCCCCCCOS(=O)(=O)O [n-tetracosyl] | 123,000 units/mg. | 0 | – |
| CCCCCCCCCCCCCOS(=O)(=O)O [n-tridecyl] | – | – | Inhibition (units/mg.) [1, 4]: 3,200 units/mg.; inhibition at 10000 µg/mL [2, 3]: 80% |
| CCCCCCCC/C=C\CCCCCCCCOS(=O)(=O)O [oleyl] | 152,000 units/mg. | 0 | – |
| CC(C)CCCC(C)CCOS(=O)(=O)O (stereo not drawn) [tetrahydrogeranyl] | 240,000 units/mg. | 0 | – |
